Data: ChEMBL document CHEMBL1201862, “PubChem BioAssay data set” (2004)
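All cell lines were grown in 96-well plates and treated with compound for 48 hours. GI50 is the concentration that inhibits growth by half.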 Active and inactive are the calls of the source. No stated cut-off is given here; in the data, active = GI50 up to about 1.1 µM and inactive = higher.

Key:
Experiment in all cases: NCI tumour cell line growth inhibition, 48 h
[1] = test system: HOP-62
[2] = test system: OVCAR-3
[3] = test system: KM12
[4] = test system: HCT-116
[5] = test system: UO-31
[6] = test system: RXF 393
[7] = test system: NCI/ADR-RES
[8] = test system: Hs-578T
[9] = test system: SNB-19
[10] = test system: OVCAR-5
[11] = test system: DU-145
[12] = test system: IGROV-1
[13] = test system: RPMI-8226
[14] = test system: MDA-N
[15] = test system: MDA-MB-435
[16] = test system: 786-0
[17] = test system: SF-539
[18] = test system: COLO 205

Measured: GI50

CC(NC(=O)CNP(=O)(c1ccccc1)c1ccccc1)C(=O)NC(Cc1ccccc1)C(=O)OCc1ccccc1 (stereo not drawn)
inactive: [1] > 100 µM | [2] 43 µM | [3] 25.6 µM | [4] 34.9 µM | [5] > 100 µM | [6] 21 µM | [7] > 100 µM | [8] 27.5 µM | [9] 51.2 µM | [10] > 100 µM | [11] > 100 µM | [12] 66.5 µM | [13] 33 µM | [14] 43.3 µM | [15] 50.2 µM | [16] 22.2 µM | [17] 62.2 µM | [18] > 10 µM

COc1nc2c(c(=O)n1C)N[C@@H]1[C@@H](O)[C@H](O)CO[C@@H]1N2
inactive: [1] > 100 µM | [2] > 100 µM | [3] > 100 µM | [4] > 100 µM | [5] > 100 µM | [6] > 100 µM | [7] > 100 µM | [8] > 100 µM | [9] > 100 µM | [10] > 100 µM | [11] > 100 µM | [12] > 100 µM | [13] > 100 µM | [14] > 100 µM | [15] > 100 µM | [16] > 100 µM | [17] > 100 µM | [18] > 100 µM

COc1ccc(C2N(c3ccc(F)c([N+](=O)[O-])c3)C(=O)N3C(c4ccc(OC)cc4)N(c4ccc(F)c([N+](=O)[O-])c4)C(=O)N23)cc1 (stereo not drawn)
inactive: [1] > 100 µM | [2] > 100 µM | [3] > 100 µM | [4] > 100 µM | [5] > 100 µM | [6] > 100 µM | [7] > 100 µM | [8] > 100 µM | [9] > 100 µM | [10] > 100 µM | [11] > 100 µM | [12] > 100 µM | [13] > 100 µM | [14] > 100 µM | [15] > 100 µM | [16] > 100 µM | [17] > 100 µM | [18] > 100 µM

NNC(=O)CC(=O)Nc1ccc(Cl)cc1
inactive: [1] > 100 µM | [2] > 100 µM | [3] > 100 µM | [4] > 100 µM | [5] > 100 µM | [6] > 100 µM | [7] > 100 µM | [8] > 100 µM | [9] > 100 µM | [10] > 100 µM | [11] > 100 µM | [12] > 100 µM | [13] > 100 µM | [14] > 100 µM | [15] > 100 µM | [16] > 100 µM | [17] > 100 µM | [18] > 100 µM

CCOC(=O)C(=Cc1[nH]c2ccccc2c1-c1c[nH]c2ccccc12)C(=O)OCC
inactive: [1] 14.2 µM | [2] 9.33 µM | [3] 4.69 µM | [4] 10.8 µM | [5] 13.5 µM | [6] 10.8 µM | [7] 7.16 µM | [8] 29.9 µM | [9] 14.2 µM | [10] 15.1 µM | [11] 14.1 µM | [12] 11.1 µM | [13] 2.84 µM | [14] 13.3 µM | [15] 5.96 µM | [16] 2.75 µM | [17] 18.5 µM | [18] 16.2 µM

CC(C)N(c1cc2c(cc1F)c(=O)c(C(=O)O)cn2-c1ccc(N2CCN(C)CC2)cn1)C(C)C
inactive: [1] > 100 µM | [2] > 100 µM | [3] > 100 µM | [4] > 100 µM | [5] > 100 µM | [6] > 100 µM | [7] > 100 µM | [8] > 100 µM | [9] > 100 µM | [10] > 100 µM | [11] > 100 µM | [12] > 100 µM | [13] > 100 µM | [14] > 100 µM | [15] > 100 µM | [16] > 100 µM | [17] > 100 µM | [18] > 100 µM

O=[N+]([O-])c1cc(Cl)ccc1S(=O)(=O)c1cc(Cl)cc2c1NCCC2
inactive: [1] 69.2 µM | [2] 62.7 µM | [3] 52.7 µM | [4] 63.1 µM | [5] 49.5 µM | [6] 41.4 µM | [7] 71.4 µM | [8] 95.1 µM | [9] > 100 µM | [10] > 100 µM | [11] > 100 µM | [12] 29.1 µM | [13] > 100 µM | [14] 39.3 µM | [15] 39.6 µM | [16] > 100 µM | [17] > 100 µM | [18] 99.8 µM

CCc1cc2c(c3c1CCCC3=O)CC1(Cc3ccc(C(=O)OC)cc3C1)C2 (stereo not drawn)
inactive: [1] > 100 µM | [2] > 100 µM | [3] 30.6 µM | [4] 37.9 µM | [5] 48.3 µM | [6] 32.5 µM | [7] 76 µM | [8] > 100 µM | [9] > 100 µM | [10] > 100 µM | [11] > 100 µM | [12] > 100 µM | [13] 18.7 µM | [14] > 100 µM | [15] 37.2 µM | [16] 84.5 µM | [17] > 100 µM | [18] 47.9 µM

O=[N+]([O-])/C=C\c1c[nH]c2ccc(OCc3ccccc3)cc12
inactive: [1] 12.9 µM | [2] 10.4 µM | [3] 2.09 µM | [4] 1.73 µM | [5] 3.58 µM | [6] 2.58 µM | [7] 19.3 µM | [8] 3.57 µM | [9] 4.89 µM | [10] 11.1 µM | [11] 7.46 µM | [12] 4.15 µM | [13] 2.08 µM | [14] 2.23 µM | [15] 2.16 µM | [16] 1.93 µM | [17] 10.4 µM | [18] 3.85 µM

Cc1cc(/N=C/c2ccc(F)cc2)n(-c2ccccc2)n1
inactive: [1] > 100 µM | [2] > 100 µM | [3] 51.8 µM | [4] > 100 µM | [5] > 100 µM | [6] 47.9 µM | [7] > 100 µM | [8] > 100 µM | [9] > 100 µM | [10] > 100 µM | [11] > 100 µM | [12] 84.3 µM | [13] 21.3 µM | [14] 73.3 µM | [15] 74.1 µM | [16] > 100 µM | [17] > 100 µM | [18] 37.1 µM

Oc1nc2nc3ccccc3nc2nc1O
inactive: [1] > 100 µM | [2] > 100 µM | [3] > 100 µM | [4] > 100 µM | [5] > 100 µM | [6] > 100 µM | [7] > 100 µM | [8] > 100 µM | [9] > 100 µM | [10] > 100 µM | [11] > 100 µM | [12] > 100 µM | [13] > 100 µM | [14] > 100 µM | [15] > 100 µM | [16] > 100 µM | [17] > 100 µM | [18] > 100 µM
